Reference: the supplement of paper PMC13380429

What was measured:
Conditions in all cases: 72 h
Vero E6 [1] = assay: drug sensitivity score (DSS) for viability; higher = more toxic; extreme values may be limits of the assay
U2OS [2] = assay: as above
HepG2 [3] = assay: as above
Calu-3 [4] = assay: as above
Caco-2 [5] = assay: as above
Vero E6 [6] = assay: relative viability EC50 (midpoint between 100% and the lowest measured viability); higher = less toxic
U2OS [7] = assay: as above
HepG2 [8] = assay: as above
Calu-3 [9] = assay: as above
Caco-2 [10] = assay: as above
Vero E6 [11] = assay: cell viability relative to DMSO; higher = less toxic
U2OS [12] = assay: as above
HepG2 [13] = assay: as above
Calu-3 [14] = assay: as above
Caco-2 [15] = assay: as above

Row | Structure (SMILES) | drug sensitivity score (Vero E6 [1]) | drug sensitivity score (U2OS [2]) | drug sensitivity score (HepG2 [3]) | drug sensitivity score (Calu-3 [4]) | drug sensitivity score (Caco-2 [5]) | relative viability EC50 (Vero E6 [6]) | relative viability EC50 (U2OS [7]) | relative viability EC50 (HepG2 [8]) | relative viability EC50 (Calu-3 [9]) | relative viability EC50 (Caco-2 [10]) | cell viability (Vero E6 [11]; 1 nM) | cell viability (Vero E6 [11]; 10 nM) | cell viability (Vero E6 [11]; 100 nM) | cell viability (Vero E6 [11]; 1000 nM) | cell viability (Vero E6 [11]; 10000 nM) | cell viability (U2OS [12]; 1 nM) | cell viability (U2OS [12]; 10 nM) | cell viability (U2OS [12]; 100 nM) | cell viability (U2OS [12]; 1000 nM) | cell viability (U2OS [12]; 10000 nM) | cell viability (HepG2 [13]; 1 nM) | cell viability (HepG2 [13]; 10 nM) | cell viability (HepG2 [13]; 100 nM) | cell viability (HepG2 [13]; 1000 nM) | cell viability (HepG2 [13]; 10000 nM) | cell viability (Calu-3 [14]; 1 nM) | cell viability (Calu-3 [14]; 10 nM) | cell viability (Calu-3 [14]; 100 nM) | cell viability (Calu-3 [14]; 1000 nM) | cell viability (Calu-3 [14]; 10000 nM) | cell viability (Caco-2 [15]; 1 nM) | cell viability (Caco-2 [15]; 10 nM) | cell viability (Caco-2 [15]; 100 nM) | cell viability (Caco-2 [15]; 1000 nM) | cell viability (Caco-2 [15]; 10000 nM)
1 | FC(F)(F)c1ccccc1-c1cc(C(F)(F)F)c2[nH]c(C3=NOC4(CCCCC4)C3)nc2c1 [TC-I-2014] | 0 | 0 | 0 | 0 | 0 | > 10 µM | > 10 µM | > 10 µM | > 10 µM | > 10 µM | 95.6% | 98.8% | 90.1% | 94.8% | 89.5% | 106% | 103% | 103% | 100% | 90.7% | 91.6% | 103% | 97.4% | 98.4% | 89.3% | 112% | 105% | 97.7% | 99.8% | 97.7% | 91.9% | 95.5% | 96.8% | 93.4% | 89.8%
2 | CC[C@]1(O)C[C@@H]2CN(CCc3c([nH]c4ccccc34)[C@@](C(=O)OC)(c3cc4c(cc3OC)N(C)[C@H]3[C@@](O)(C(=O)OC)[C@H](OC(C)=O)[C@]5(CC)C=CCN6CC[C@]43[C@@H]65)C2)C1 [Vinblastine (sulfate)] | 20.6 | 31.8 | 27.8 | 22 | 24.1 | 0.0688 µM | 0.0071 µM | 0.0053 µM | 0.0105 µM | 0.0105 µM | 100% | 91.3% | 48.8% | 30.1% | 18.1% | 96.1% | 48.1% | 24.9% | 19.6% | 16.8% | 99.3% | 43.9% | 34.7% | 32.5% | 34.8% | 87.5% | 64.9% | 50.5% | 41.6% | 34.3% | 90.3% | 56.8% | 44.4% | 43.9% | 27.7%
3 | N#Cc1cc(NC(=O)C(=O)O)c(Cl)c(NC(=O)C(=O)O)c1 [lodoxamide] | 0 | 0 | 0 | 0 | 0 | > 10 µM | > 10 µM | > 10 µM | > 10 µM | > 10 µM | 101% | 99.9% | 98.6% | 97.8% | 93.8% | 104% | 102% | 97.2% | 102% | 98.1% | 102% | 107% | 92.7% | 93.3% | 93.6% | 109% | 100% | 92.1% | 96.4% | 99.4% | 106% | 119% | 99.8% | 118% | 128%
4 | N#CC(Cc1ccc(O)cc1)c1ccc(O)cc1 (stereo not given) [diarylpropionitrile] | 0 | 0 | 0 | 0 | 0 | > 10 µM | > 10 µM | > 10 µM | > 10 µM | > 10 µM | 99.4% | 104% | 99.1% | 102% | 94.8% | 99.6% | 99.4% | 98.7% | 102% | 102% | 98.7% | 90.3% | 99.6% | 89.2% | 102% | 108% | 91.2% | 100% | 94.3% | 103% | 99% | 103% | 88.4% | 100% | 95.3%
5 | C[C@H](N[C@@H](CCc1ccccc1)C(=O)O)C(=O)N1Cc2ccccc2C[C@H]1C(=O)O [quinaprilat] | 0 | 0 | 0 | 0 | 0 | > 10 µM | > 10 µM | > 10 µM | > 10 µM | > 10 µM | 91.8% | 98.9% | 91.8% | 104% | 106% | 94.7% | 96.1% | 98.3% | 98.1% | 106% | 107% | 94.9% | 98.4% | 110% | 94.9% | 97.5% | 97.6% | 91.3% | 97% | 93.5% | 102% | 98.2% | 96.8% | 100% | 92.1%
6 | NC(=O)c1ccc(-c2nc(-c3ccc4c(c3)OCCO4)c(-c3ccccn3)[nH]2)cc1 [D-4476] | 0 | 0 | 0 | 0 | 0 | > 10 µM | > 10 µM | > 10 µM | > 10 µM | > 10 µM | 102% | 93.4% | 100% | 106% | 106% | 96.1% | 97.9% | 96.7% | 99.5% | 91.9% | 105% | 103% | 96.3% | 96% | 105% | 84.4% | 101% | 96.1% | 108% | 98.8% | 93% | 95.1% | 92.4% | 92.8% | 98.6%
7 | C=CCc1cc(OC)c(O)c(C(=O)NCCO)c1 [alibendol] | 0 | 0 | 0 | 0 | 0 | > 10 µM | > 10 µM | > 10 µM | > 10 µM | > 10 µM | 105% | 99.2% | 99.6% | 105% | 97.4% | 102% | 105% | 95% | 104% | 99.6% | 92.4% | 98.7% | 101% | 92.5% | 102% | 93.6% | 99.3% | 87.2% | 99.7% | 101% | 90.7% | 112% | 90.5% | 93% | 99.9%
8 | c1ccc2c(c1)OC[C@H](CNCCCOc1ccc3c(c1)OCO3)O2 [osemozotan] | 0 | 0 | 0 | 0 | 0 | > 10 µM | > 10 µM | > 10 µM | > 10 µM | > 10 µM | 106% | 104% | 103% | 85.3% | 100% | 96.9% | 99.2% | 96.9% | 101% | 94.2% | 99.1% | 105% | 112% | 97% | 106% | 94% | 103% | 109% | 108% | 95.9% | 90.5% | 108% | 101% | 96.5% | 114%
9 | CC(C)c1cc(CNc2nc(Nc3cc(C4CC4)[nH]n3)cc(N3CCN(C)CC3)n2)on1 [XL228] | 7.8 | 15.1 | 16.2 | 8.8 | 6.7 | 1.35 µM | 0.47 µM | 0.266 µM | 0.593 µM | 1.22 µM | 94% | 97.8% | 101% | 75.3% | 23% | 104% | 103% | 84.8% | 30% | 0% | 95.3% | 98.3% | 62.4% | 40.6% | 7.4% | 95.7% | 99.3% | 87.3% | 61.5% | 33.9% | 111% | 94.4% | 93% | 72.5% | 33.1%
10 | CC[C@H](C)[C@H]1O[C@]2(CC[C@@H]1C)C[C@@H]1C[C@@H](C/C=C(\C)[C@@H](O[C@H]3C[C@H](OC)[C@@H](O[C@H]4C[C@H](OC)[C@@H](O)[C@H](C)O4)[C@H](C)O3)[C@@H](C)/C=C/C=C3\CO[C@@H]4[C@H](O)C(C)=C[C@@H](C(=O)O1)[C@]34O)O2 [ivermectin] | 0 | 0 | 0.1 | 0 | 0 | > 10 µM | > 10 µM | > 10 µM | > 10 µM | > 10 µM | 107% | 103% | 106% | 103% | 87.8% | 104% | 95.1% | 99.4% | 96.1% | 93.9% | 96.2% | 98.5% | 108% | 107% | 85% | 101% | 107% | 88.1% | 97.1% | 93.6% | 94.7% | 90.3% | 94.2% | 95.8% | 108%
11 | C=CC(=O)Nc1cccc(Oc2nc(Nc3ccc(N4CCN(C)CC4)cc3)ncc2Cl)c1 [WZ-3146] | 10.3 | 9.7 | 6.7 | 13.9 | 8.3 | 1.11 µM | 1.46 µM | 1.16 µM | 0.539 µM | 1.56 µM | 104% | 99.3% | 106% | 59.9% | 7.8% | 97.6% | 100% | 95.5% | 72.1% | 0.2% | 108% | 100% | 109% | 75% | 38.7% | 95.9% | 89.9% | 86.4% | 36.9% | 2.3% | 90.7% | 100% | 99.3% | 78.3% | 11.6%
